The nature of data set [1]: Single pass intestinal perfusion with portal vein blood collection. The data set is classed as in vivo, rat. The note with it: for Pe-mes (mesenteric permeability): rat in situ single pass intestinal perfusion, portal vein plasma, pH 7.5 buffer. The method, then: Male albino Sprague-Dawley rats, 9-10 weeks old and weighing 250-400 g were used in the study. Prior to each experiment, the rats were fasted for 18 h with free access to water. The rats were anesthetized with an i.m. injection of ketamine/xylazinelbutorphanol (87, 6, and 0.2 mg/kg body weight, respectively). The abdomen was opened by a midline incision of 4-5 cm. A suitable intestinal segment of approximately 10-20 cm was cannulated on two ends and connected to a syringe pump that guided the solution through a water bath of 37° C. This isolated segment was then rinsed with buffer at the respective pH at a flow-rate of 0.5 ml/min in order to clean out any residual debris. A 10 mM HEPES (pH 7.5) buffer containing 135 mM NaCl, 5 mM KCl and 0.01% PEG 4000 was used for the perfusion buffer. The intestinal segments were perfused at a flow rate of approximately […] with these buffers containing test drug and ^14C-PEG 4000 as a non-absorbable marker for measuring water flux. […] Sample analysis for ^14C (PEG-4000) was performed by scintillation counting. For these studies, we also took blood from the portal vein (prehepatic) as described below. After a segment of intestine was cannulated, the portal vein was then immediately cannulated using a 24-gauge Angeocath catheter (Becton Dickinson, Sandy, Utah). The cannula was secured in place using cyanoacrylate glue or surgical tape and connected to an approximately 35 cm long Silastic tubing, which allowed blood to flow into vials placed about 25 cm below the mesenteric vein. The single-pass intestinal perfusion was initiated at this time. Blood flowing out of the mesenteric vein from the isolated intestinal segment was collected directly into vials, centrifuged immediately and plasma was separated and stored at −80° C.
Rat plasma samples were acidified and processed with solid phase extraction. Briefly, a cation exchange solid-phase cartridge (MCX, 30 mg/i. cc, Waters) was activated with 1.0 ml of methanol and equilibrated with 1.0 ml of water. A 500 μl aliquot of rat plasma was acidified and loaded onto the cartridge. After washing with 1.0 ml of 0.1 N HCl and 1.0 ml methanol, the compounds were eluted with 1 ml of 5% NH4OH in methanol. The solvent was evaporated under vacuum and the residue was reconstituted in 200 μl of water. Samples were analyzed using a LC-MS/MS system (Micromass Quattro II, HP 1100). Ten μl of sample was separated with a Cs column (2.1×150 mm) using a mobile phase of 5-10% acetonitrile:water containing 0.5% formic acid.
From the plasma concentration of compound, the mesenteric permeability was determined by substitution into Eq. (1), Flux=(A)(Pe-mes)(Ci) Eq. (1) where Flux is equal to the portal blood flow (estimated at 1 ml/min in the rat) X the steady state mesenteric blood concentration of cidofovir-based compound, A is the absorptive area of the intestine (estimated at 12.56 cm^2 in the rat intestine), Pe-mes is the mesenteric permeability (cm/s), and Ci is the starting concentration of the drug in the perfusate ([…]).

Data set [2] addresses T1, hPepT1 (Homo sapiens, UniProt P46059).
T1 construct: expressed in transfected cells; host or cells: DC5 cells (hPepT1 over-expressing cell line)
T1 sequence (P46059 1-708): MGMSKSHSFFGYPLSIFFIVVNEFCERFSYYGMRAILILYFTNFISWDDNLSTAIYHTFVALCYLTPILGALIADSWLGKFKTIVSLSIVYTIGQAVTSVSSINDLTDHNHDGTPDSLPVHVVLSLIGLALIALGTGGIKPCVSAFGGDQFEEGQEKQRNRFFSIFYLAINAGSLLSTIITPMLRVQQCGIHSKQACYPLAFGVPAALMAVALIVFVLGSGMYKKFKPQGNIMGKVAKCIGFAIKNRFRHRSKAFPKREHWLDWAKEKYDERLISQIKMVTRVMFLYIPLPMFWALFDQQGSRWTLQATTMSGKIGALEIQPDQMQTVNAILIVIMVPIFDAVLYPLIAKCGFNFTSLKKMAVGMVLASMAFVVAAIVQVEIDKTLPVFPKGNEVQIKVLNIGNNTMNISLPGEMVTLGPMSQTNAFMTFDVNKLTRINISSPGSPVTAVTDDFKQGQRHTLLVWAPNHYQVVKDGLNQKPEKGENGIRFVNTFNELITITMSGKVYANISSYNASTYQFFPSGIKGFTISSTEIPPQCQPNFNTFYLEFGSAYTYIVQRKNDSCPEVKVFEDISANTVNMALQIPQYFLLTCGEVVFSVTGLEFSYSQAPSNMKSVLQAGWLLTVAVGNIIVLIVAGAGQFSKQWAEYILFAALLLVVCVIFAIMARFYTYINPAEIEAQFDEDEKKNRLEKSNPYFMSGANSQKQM
In words: Competitive binding (3H Gly-Sar uptake inhibition) in hPepT1 over-expressing DC5 cells. The data set is classed as cell-based. As to conditions: for affinity for PepT1: DC5 cells over-expressing hPepT1. The method, then:
Ki values for the cidofovir compounds were determined in the hPepT1 over-expressing cell line (DC5) using ^3H glycine-sarcosine (Gly-Sar). DC5 cells were plated (12,000 cells/well) in 96-well tissue culture plates (Falcon) and allowed to grow for 4 days. The cells were washed once with 200 μl of uptake buffer and aspirated. The plates were cooled to 4° C. and 25 μl of uptake buffer containing 50 μM Gly-Sar (0.5 μCi/ml) was added. The uptake buffer also contained the test cidofovir-based compounds over a range of concentrations. Uptake was initiated by placing the plate in a shaker water bath (37° C.) and terminated at 10 min by rapid washing with multiple changes of 4° C. PBS (Sigma). The radioactive peptide was extracted from the cell layer with 200 μl of methanol:water (1:1) and counted in 4 ml of CytoScint ESTM scintillation cocktail (ICN). Non-linear regression analysis of the data was used to determine the IC50 using the solver function in Microsoft Excel.

The conditions of data set [3]: in vivo; cited from earlier work.
For data set [4] the following is noted: pH 3-5.
For data set [5] the following is noted: cell and tissue homogenates.
[6] abbreviates: DC5 cells, 50 μM 3H Gly-Sar, 10 min, 37° C., read-out: Gly-Sar inhibition, Ki.

Like-named read-outs stand apart in the source and are kept apart here.

What is called Ki is a dissociation constant, usually derived from enzyme kinetics or from competition with a known ligand.

As to `Nc1ccn(C[C@H]2COP(=O)(O)CO2)c(=O)n1` [Cyclic cidofovir, reference compound], the “Pe-mes (mesenteric permeability)” value in data set [1] is 0.003 cm/s × 10^5. In addition, in data set [2] (setting [6]), the Ki stood at 10.7 ± 0.2 mM.

For `CC(C)[C@H](N)C(=O)OCCOCn1cnc2c(=O)[nH]c(N)nc21` [Valacyclovir], the “bioavailability enhancement compared to parent drug acyclovir” value in data set [3] was 3- to 5 fold.

Regarding `Nc1ccn(C[C@@H](CO)OCP(=O)(O)O)c(=O)n1` [Cidofovir, (S)-1-(3-hydroxy-2-phosphonylmethoxypropyl)cytosine, reference compound], in data set [1], the “Pe-mes (mesenteric permeability)” value came out at 0.052 cm/s × 10^5. Moreover, in data set [2] (setting [6]), the Ki came out at 10.8 ± 0.3 mM.

For the compound `COC(=O)[C@H](COP1(=O)CO[C@@H](Cn2ccc(N)nc2=O)CO1)NC(=O)[C@@H](N)C(C)C` (mixture of isomers) [Compound 4, cHPMPC-Val-Ser(OMe)], the “transport on co-dosing with bestatin” value in data set [1] (co-dosing with the aminopeptidase inhibitor bestatin) is on record as “enhanced transport”. Also, in data set [1] (in situ perfusion model, co-perfusion with Gly-Sar), the “transport on co-perfusion with Gly-Sar” value is recorded as “almost completely suppressed”. In addition, the “Pe-mes (mesenteric permeability)” value in data set [1] stood at 1.18 cm/s × 10^5. For the same compound, the “transport vs. the parent drug” value in data set [1] (rat model) is reported as “enhanced transport”. For the same compound, in data set [2], the Ki came out at 2.7 ± 0.1 mM and the “affinity for PepT1” value was “significant affinity”. For the same compound, in data set [4], the stability in buffer entry is on record as “stable”. In data set [5], the “release of active drug” value was “rapidly released the active drug”.

Take `COC(=O)C(COP1(=O)COC(Cn2ccc(N)nc2=O)CO1)NC(=O)C(C)N` (stereo not shown) [Compound 6, cHPMPC-Ala-Ser(OMe)]: in data set [1], the “Pe-mes (mesenteric permeability)” value stood at 0.98 cm/s × 10^5. For the same compound, in data set [2], the inhibition constant (Ki) was found to be 3.4 ± 0.2 mM and the “affinity for PepT1” value is “significant affinity”.

Take `COC(=O)[C@H](COP1(=O)CO[C@@H](Cn2ccc(N)nc2=O)CO1)NC(=O)[C@@H](N)CC(C)C` (mixture of isomers) [Compound 7, cHPMPC-Leu-Ser(OMe)]: the “Pe-mes (mesenteric permeability)” value in data set [1] amounted to 0.48 cm/s × 10^5. In data set [2], the “affinity for PepT1” value is “significant affinity”. Besides, the Ki in data set [2] (setting [6]) was determined as 5.4 ± 0.2 mM.

Values taken from patent publication US8063209B2, “Phosphonyl ester conjugates as prodrugs” (priority 2004, dated 2011).
